Source: patent US11168073B2, “3,3-difluoroallylamines or salts thereof and pharmaceutical compositions comprising the same” (YUHAN CORPORATION, priority 2018, dated 2021)
Where a name gives a salt, the structure may show the parent alone. Read-outs that look alike come from different tables or passages of the source.

How the values were obtained:
Assay type in all cases: biochemical
[1] = target: T1, recombinant human DAO (diamine oxidase) (Homo sapiens, UniProt P19801); experiment: Activity evaluation on recombinant human DAO (Amplex Red/HRP-coupled assay, 1 mM putrescine substrate); details: read-out: Inhibitory Activity (IC50, nM) DAO
T1 construct: purchased R&D systems
T1 sequence (P19801 20-751): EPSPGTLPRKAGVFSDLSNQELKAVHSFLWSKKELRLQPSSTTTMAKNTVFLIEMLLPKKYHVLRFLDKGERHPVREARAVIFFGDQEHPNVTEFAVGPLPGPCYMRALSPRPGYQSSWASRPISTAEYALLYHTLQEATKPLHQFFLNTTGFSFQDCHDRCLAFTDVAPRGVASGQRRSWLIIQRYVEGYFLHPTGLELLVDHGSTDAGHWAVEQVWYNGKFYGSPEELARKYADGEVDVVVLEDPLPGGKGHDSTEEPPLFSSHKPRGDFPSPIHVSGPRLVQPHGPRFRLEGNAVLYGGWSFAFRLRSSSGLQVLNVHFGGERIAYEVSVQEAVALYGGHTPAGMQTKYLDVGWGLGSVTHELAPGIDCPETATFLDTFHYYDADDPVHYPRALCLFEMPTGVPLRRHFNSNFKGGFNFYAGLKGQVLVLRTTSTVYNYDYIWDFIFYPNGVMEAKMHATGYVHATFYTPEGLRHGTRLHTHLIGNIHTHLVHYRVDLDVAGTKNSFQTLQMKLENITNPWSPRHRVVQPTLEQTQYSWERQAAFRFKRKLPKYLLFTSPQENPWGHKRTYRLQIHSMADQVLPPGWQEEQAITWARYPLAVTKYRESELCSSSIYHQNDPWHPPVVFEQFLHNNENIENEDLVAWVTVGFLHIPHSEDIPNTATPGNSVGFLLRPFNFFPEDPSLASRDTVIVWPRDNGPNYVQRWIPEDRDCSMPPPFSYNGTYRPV
How it was run: (§1)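 Enzyme activity was measured as fluorescence rate (ex 544, em 590 nm) from resorufin formed by HRP-coupled H2O2 oxidation of 200 uM Amplex Red. Compounds were first incubated 30 min at 37 °C with enzyme at pH 7.4; substrates were 0.5 mM tyramine (MAO-A), 1 mM benzylamine (MAO-B) and 1 mM putrescine (DAO).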

[2] = target: T2, recombinant human MAO-A (monoamine oxidase-A) (Homo sapiens, UniProt P21397); experiment: Activity evaluation on recombinant human MAO-A (Amplex Red/HRP-coupled assay, 0.5 mM tyramine substrate); details: read-out: Inhibitory Activity (IC50, nM) MAO-A
T2 construct: purchased Sigma-Aldrich
T2 sequence (P21397 1-527): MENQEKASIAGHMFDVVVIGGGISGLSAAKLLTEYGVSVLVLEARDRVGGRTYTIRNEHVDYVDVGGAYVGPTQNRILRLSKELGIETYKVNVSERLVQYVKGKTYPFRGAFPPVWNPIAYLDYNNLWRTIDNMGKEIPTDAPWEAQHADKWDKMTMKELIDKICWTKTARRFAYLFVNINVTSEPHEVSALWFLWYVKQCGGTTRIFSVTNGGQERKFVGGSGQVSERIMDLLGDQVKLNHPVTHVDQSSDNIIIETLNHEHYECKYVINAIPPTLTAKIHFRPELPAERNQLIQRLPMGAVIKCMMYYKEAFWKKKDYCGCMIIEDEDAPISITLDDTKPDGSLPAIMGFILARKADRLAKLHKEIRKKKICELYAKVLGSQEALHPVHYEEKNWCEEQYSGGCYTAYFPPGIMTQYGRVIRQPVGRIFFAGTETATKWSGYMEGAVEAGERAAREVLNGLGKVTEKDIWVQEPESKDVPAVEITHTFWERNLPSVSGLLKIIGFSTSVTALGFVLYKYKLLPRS
How it was run: as §1

[3] = target: T3, recombinant human MAO-B (monoamine oxidase-B) (Homo sapiens, UniProt P27338); experiment: Activity evaluation on recombinant human MAO-B (Amplex Red/HRP-coupled assay, 1 mM benzylamine substrate); details: read-out: Inhibitory Activity (IC50, nM) MAO-B
T3 construct: purchased Sigma-Aldrich
T3 sequence (P27338 1-520): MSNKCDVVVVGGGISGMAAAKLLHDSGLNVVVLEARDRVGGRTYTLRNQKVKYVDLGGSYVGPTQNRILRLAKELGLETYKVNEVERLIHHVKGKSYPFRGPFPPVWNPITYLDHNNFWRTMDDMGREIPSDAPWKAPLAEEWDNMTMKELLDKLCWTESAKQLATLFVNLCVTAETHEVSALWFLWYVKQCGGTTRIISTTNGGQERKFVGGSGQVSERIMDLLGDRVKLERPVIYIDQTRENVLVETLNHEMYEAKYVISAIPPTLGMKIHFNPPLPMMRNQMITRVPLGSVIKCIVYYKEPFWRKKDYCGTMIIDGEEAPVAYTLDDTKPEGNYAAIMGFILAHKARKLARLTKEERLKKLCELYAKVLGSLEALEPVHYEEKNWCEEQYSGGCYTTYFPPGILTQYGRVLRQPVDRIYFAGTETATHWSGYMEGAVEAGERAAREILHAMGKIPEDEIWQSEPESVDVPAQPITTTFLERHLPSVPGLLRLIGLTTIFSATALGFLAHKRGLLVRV
How it was run: as §1

recombinant human VAP-1 = target: T4, recombinant human VAP-1 (Homo sapiens, UniProt Q16853); experiment: Activity evaluation on recombinant human VAP-1 (Amplex Red/HRP-coupled hydrogen peroxide assay, benzylamine substrate); details: read-out: Inhibitory Activity (IC50, nM) human VAP-1
T4 construct: purchased R&D systems
T4 sequence (Q16853 1-763): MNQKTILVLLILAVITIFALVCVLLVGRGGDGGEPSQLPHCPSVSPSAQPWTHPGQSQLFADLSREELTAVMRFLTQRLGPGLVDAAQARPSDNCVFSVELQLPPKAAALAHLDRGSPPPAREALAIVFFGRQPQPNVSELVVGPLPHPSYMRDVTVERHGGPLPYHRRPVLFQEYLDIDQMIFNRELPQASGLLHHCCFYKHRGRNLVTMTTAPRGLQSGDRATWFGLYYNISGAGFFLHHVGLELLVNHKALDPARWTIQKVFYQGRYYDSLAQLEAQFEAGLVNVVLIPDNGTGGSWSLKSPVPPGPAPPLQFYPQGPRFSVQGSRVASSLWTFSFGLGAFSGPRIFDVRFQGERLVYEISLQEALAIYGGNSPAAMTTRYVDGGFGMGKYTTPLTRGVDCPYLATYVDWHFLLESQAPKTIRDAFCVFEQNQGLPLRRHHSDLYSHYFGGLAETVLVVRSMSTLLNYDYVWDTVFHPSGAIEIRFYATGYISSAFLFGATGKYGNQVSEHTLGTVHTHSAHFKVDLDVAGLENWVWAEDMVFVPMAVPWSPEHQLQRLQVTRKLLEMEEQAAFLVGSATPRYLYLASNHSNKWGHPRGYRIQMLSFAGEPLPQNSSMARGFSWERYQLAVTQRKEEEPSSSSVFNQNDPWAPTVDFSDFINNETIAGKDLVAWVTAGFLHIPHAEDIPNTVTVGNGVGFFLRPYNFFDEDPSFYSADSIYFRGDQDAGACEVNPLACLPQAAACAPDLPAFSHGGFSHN
How it was run: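 Recombinant human VAP-1 in 50 mM sodium phosphate pH 7.4 preincubated 30 min at 37 °C with compound (8-point 1:3 series, <1% DMSO), then 1 mM benzylamine, 200 uM Amplex Red, 1 U/mL HRP added. H2O2-derived resorufin fluorescence (ex 544/em 590) followed 1–2 h; IC50 from four-parameter fit of rate inhibition.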

[4] = recombinant human VAP-1, benzylamine substrate
[5] = recombinant human VAP-1, 30 min preincubation at 37° C., 1 mM benzylamine

For CN(C)c1ccc(-c2cc(F)c(Cn3cnn(CC(CN)=C(F)F)c3=O)s2)cn1 [Example 303, 2-(2-(aminomethyl)-3,3-difluoroallyl)-4-((5-(6-(dimethylamino)pyridin-3-yl)-3-fluorothiophen-2-yl)methyl)-2,4-dihydro-3H-1,2,4-triazol-3-one trifluoroacetate], the IC50 ([1]; 1 mM putrescine substrate) was greater than 100000 nM, the IC50 ([2]; 0.5 mM tyramine substrate) was greater than 100000 nM and the IC50 ([3]; 1 mM benzylamine substrate) was greater than 100000 nM. The IC50 (recombinant human VAP-1; [4]) was 0.8 nM.

CS(=O)(=O)c1ccc(-c2cccc(-n3cnn(CC(CN)=C(F)F)c3=O)n2)cc1 [Example 46, 2-[2-(aminomethyl)-3,3-difluoro-allyl]-4-[6-(4-methylsulfonylphenyl)-2-pyridyl]-1,2,4-triazol-3-one Trifluoroacetate] gave an IC50 ([1]; 1 mM putrescine) of 190 nM, an IC50 ([2]; 0.5 mM tyramine) greater than 100000 nM and an IC50 ([3]; 1 mM benzylamine) greater than 100000 nM. For the same compound, the IC50 (recombinant human VAP-1; [5]) was 0.9 nM.

With COc1cc(-c2ccc(Cn3cnn(CC(CN)=C(F)F)c3=O)s2)cc(OC)c1OC [Example 105, 2-[2-(aminomethyl)-3,3-difluoro-allyl]-4-[[5-(3,4,5-trimethoxyphenyl)-2-thienyl]methyl]-1,2,4-triazol-3-one Trifluoroacetate] the IC50 ([1]; 1 mM putrescine) was greater than 10000 nM, the IC50 ([2]; 0.5 mM tyramine) was greater than 100000 nM and the IC50 ([3]; 1 mM benzylamine) was 6500 nM. For the same compound, the IC50 (recombinant human VAP-1; [5]) was 1.5 nM.

For NCC(Cn1ncn(-c2cc(-c3ccc(C(F)(F)F)nc3)ccn2)c1=O)=C(F)F [Example 56, 2-[2-(aminomethyl)-3,3-difluoro-allyl]-4-[4-[6-(trifluoromethyl)-3-pyridyl]-2-pyridyl]-1,2,4-triazol-3-one Trifluoroacetate], the IC50 ([1]; 1 mM putrescine) was 75 nM, the IC50 ([2]; 0.5 mM tyramine) was greater than 100000 nM and the IC50 ([3]; 1 mM benzylamine) was 79600 nM. The IC50 (recombinant human VAP-1; [5]) was 1.6 nM.

Compound NCC(Cn1ncn(-c2cc(Br)ccn2)c1=O)=C(F)F [Example 9, 2-[2-(aminomethyl)-3,3-difluoro-allyl]-4-(4-bromo-2-pyridyl)-1,2,4-triazol-3-one Trifluoroacetate] has an IC50 ([1]; 1 mM putrescine) of 7100 nM, an IC50 ([2]; 0.5 mM tyramine) greater than 100000 nM and an IC50 ([3]; 1 mM benzylamine) greater than 100000 nM. For the same compound, the IC50 (recombinant human VAP-1; [5]) was 3.5 nM.

CN(C)c1ccc(-c2ccccc2Cn2cnn(CC(CN)=C(F)F)c2=O)cn1 [Example 281, 2-[2-(aminomethyl)-3,3-difluoro-allyl]-4-[[2-[6-(dimethylamino)-3-pyridyl]phenyl]methyl]-1,2,4-triazol-3-one Trifluoroacetate] showed an IC50 ([1]; 1 mM putrescine substrate) of 4860 nM, an IC50 ([2]; 0.5 mM tyramine substrate) greater than 100000 nM and an IC50 ([3]; 1 mM benzylamine substrate) greater than 100000 nM. The IC50 (recombinant human VAP-1; [4]) was 307 nM.

Cc1cc(-c2ccc(-n3cnn(CC(CN)=C(F)F)c3=O)cn2)cc2c1NC(=O)CC2 [Example 43, 6-[5-[1-[2-(aminomethyl)-3,3-difluoro-allyl]-5-oxo-1,2,4-triazol-4-yl]-2-pyridyl]-8-methyl-3,4-dihydro-1H-quinolin-2-one Trifluoroacetate] was tested, and the IC50 ([1]; 1 mM putrescine) was 22 nM, the IC50 ([2]; 0.5 mM tyramine) was greater than 100000 nM and the IC50 ([3]; 1 mM benzylamine) was 100 nM. For the same compound, the IC50 (recombinant human VAP-1; [5]) was 0.2 nM.

Cc1cc(C#Cc2ccc3c(c2)CCC(=O)N3)cnc1-n1cnn(CC(CN)=C(F)F)c1=O [Example 249, 6-[2-[6-[1-[2-(aminomethyl)-3,3-difluoro-allyl]-5-oxo-1,2,4-triazol-4-yl]-5-methyl-3-pyridyl]ethynyl]-3,4-dihydro-1H-quinolin-2-one Trifluoroacetate] was tested, and the IC50 ([1]; 1 mM putrescine substrate) was 3900 nM, the IC50 ([2]; 0.5 mM tyramine substrate) was greater than 100000 nM and the IC50 ([3]; 1 mM benzylamine substrate) was 3100 nM. For the same compound, the IC50 (recombinant human VAP-1; [4]) was 0.9 nM.

In the case of Cc1cc(-c2ccc(Cn3cnn(CC(CN)=C(F)F)c3=O)s2)cc2c1NC(=O)CC2 [Example 134, 6-[5-[[1-[2-(aminomethyl)-3,3-difluoro-allyl]-5-oxo-1,2,4-triazol-4-yl]methyl]-2-thienyl]-8-methyl-3,4-dihydro-1H-quinolin-2-one Trifluoroacetate], the IC50 ([1]; 1 mM putrescine) is reported as greater than 100000 nM, the IC50 ([2]; 0.5 mM tyramine) is reported as greater than 100000 nM and the IC50 ([3]; 1 mM benzylamine) is reported as 22000 nM. It also gave an IC50 (recombinant human VAP-1; [5]) of 0.3 nM.

Work on CN(C)c1ccc(-c2cc(-n3cnn(CC(CN)=C(F)F)c3=O)ccn2)cn1 [Example 63, 2-[2-(aminomethyl)-3,3-difluoro-allyl]-4-[2-[6-(dimethylamino)-3-pyridyl]-4-pyridyl]-1,2,4-triazol-3-one Trifluoroacetate] yielded an IC50 ([1]; 1 mM putrescine) of 110 nM, an IC50 ([2]; 0.5 mM tyramine) greater than 100000 nM and an IC50 ([3]; 1 mM benzylamine) of 16000 nM. The IC50 (recombinant human VAP-1; [5]) was 0.7 nM.

NCC(Cn1ncn(-c2ccc(-c3ccc(C(F)(F)F)nc3)c(F)c2)c1=O)=C(F)F [Example 26, 2-[2-(aminomethyl)-3,3-difluoro-allyl]-4-[3-fluoro-4-[6-(trifluoromethyl)-3-pyridyl]phenyl]-1,2,4-triazol-3-one Trifluoroacetate] was tested, and the IC50 ([1]; 1 mM putrescine) was 71 nM, the IC50 ([2]; 0.5 mM tyramine) was greater than 100000 nM and the IC50 ([3]; 1 mM benzylamine) was 180 nM. The IC50 (recombinant human VAP-1; [5]) was 0.7 nM.

CN1C(=O)CCc2cc(-c3cnc(-n4cnn(CC(CN)=C(F)F)c4=O)cn3)ccc21 [Example 94, 6-[5-[1-[2-(aminomethyl)-3,3-difluoro-allyl]-5-oxo-1,2,4-triazol-4-yl]pyrazin-2-yl]-1-methyl-3,4-dihydro-1H-quinolin-2-one Trifluoroacetate] was tested, and the IC50 ([1]; 1 mM putrescine) was 4 nM, the IC50 ([2]; 0.5 mM tyramine) was greater than 100000 nM and the IC50 ([3]; 1 mM benzylamine) was 860 nM. It also gave an IC50 (recombinant human VAP-1; [5]) of 0.2 nM.
